Laboratory results as given in patent publication US20200069648A1, “HALOALLYLAMINE PYRAZOLE DERIVATIVE INHIBITORS OF LYSYL OXIDASES AND USES THEREOF” (Pharmaxis Ltd., priority 2017, published 2020).
Where a name gives a salt, the structure may show the parent alone.

Compound	melting point
Cc1nn(C/C(F)=C/CN)c(C(=O)N(C)C)c1Cc1ccc(S(=O)(=O)N(C)C)cc1 (as salt: hydrochloride) [Compound 29, (Z)-1-(4-amino-2-fluorobut-2-enyl)-4-(4-(N,N-dimethylsulfamoyl)benzyl)-N,N,3-trimethyl-1H-pyrazole-5-carboxamide hydrochloride]	77 to 80 °C
CCOC(=O)c1c(Cc2ccc(S(=O)(=O)N(C)C)cc2)c(C)nn1C/C(F)=C/CN (as salt: hydrochloride) [Compound 27, (Z)-ethyl 1-(4-amino-2-fluorobut-2-enyl)-4-(4-(N,N-dimethylsulfamoyl)benzyl)-3-methyl-1H-pyrazole-5-carboxylate hydrochloride]	157 to 159 °C
CNS(=O)(=O)c1ccc(Cn2nc(C)c(C/C(F)=C/CN)c2C)c(Cl)c1 (as salt: hydrochloride) [Compound 20, (Z)-4-((4-(4-amino-2-fluorobut-2-en-1-yl)-3,5-dimethyl-1H-pyrazol-1-yl)methyl)-3-chloro-N-methylbenzenesulfonamide hydrochloride]	80 to 86 °C
CNS(=O)(=O)c1ccc(Cn2nc(C)c(C/C(F)=C/CN)c2C)c(C(F)(F)F)c1 (as salt: hydrochloride) [Compound 23, (Z)-4-((4-(4-amino-2-fluorobut-2-en-1-yl)-3,5-dimethyl-1H-pyrazol-1-yl)methyl)-N-methyl-3-(trifluoromethyl)benzenesulfonamide hydrochloride]	171 to 172 °C
Cc1nn(Cc2ccc(S(C)(=O)=O)c(Cl)c2)c(C)c1C/C(F)=C/CN (as salt: hydrochloride) [Compound 24, (Z)-4-(1-(3-chloro-4-(methylsulfonyl)benzyl)-3,5-dimethyl-1H-pyrazol-4-yl)-3-fluorobut-2-en-1-amine hydrochloride]	92 to 94 °C
Cc1nn(C/C(F)=C/CN)c(C)c1Cc1ccc(S(=O)(=O)N(C)C)cc1Cl (as salt: hydrochloride) [Compound 3, (Z)-4-((1-(4-amino-2-fluorobut-2-en-1-yl)-3,5-dimethyl-1H-pyrazol-4-yl)methyl)-3-chloro-N,N-dimethylbenzenesulfonamide hydrochloride]	185 to 187 °C

Next, values leading:

melting point	Compound
181 to 184 °C	Cc1nn(C/C(F)=C/CN)c(C)c1Cc1ccc(S(=O)(=O)N2CCCC2)cc1 (as salt: hydrochloride) [Compound 7, (Z)-4-(3,5-dimethyl-4-(4-(pyrrolidin-1-ylsulfonyl)benzyl)-1H-pyrazol-1-yl)-3-fluorobut-2-en-1-amine hydrochloride]
262 to 264 °C	Cc1c(Cc2ccc(S(=O)(=O)N(C)C)cc2)c(C(=O)O)nn1C/C(F)=C/CN (as salt: hydrochloride) [Compound 31, (Z)-1-(4-amino-2-fluorobut-2-enyl)-4-(4-(N,N-dimethylsulfamoyl)benzyl)-5-methyl-1H-pyrazole-3-carboxylic acid hydrochloride]
75 to 82 °C	Cc1nn(C/C(F)=C/CN)c(C)c1Cc1ccc(C(=O)N(C)C)cc1 (as salt: hydrochloride) [Compound 14, (Z)-4-((1-(4-amino-2-fluorobut-2-en-1-yl)-3,5-dimethyl-1H-pyrazol-4-yl)methyl)-N,N-dimethylbenzamide hydrochloride]
105 to 115 °C	Cc1nn(C/C(F)=C/CN)c(C)c1Cc1ccc(S(C)(=O)=O)c(Cl)c1 (as salt: hydrochloride) [Compound 16, (Z)-4-(4-(3-chloro-4-(methylsulfonyl)benzyl)-3,5-dimethyl-1H-pyrazol-1-yl)-3-fluorobut-2-en-1-amine hydrochloride]
127 to 137 °C	Cc1nn(C/C(F)=C/CN)c(C)c1Cc1ccc(S(C)(=O)=O)cc1 (as salt: hydrochloride) [Compound 4, (Z)-4-(3,5-dimethyl-4-(4-(methylsulfonyl)benzyl)-1H-pyrazol-1-yl)-3-fluorobut-2-en-1-amine hydrochloride]
